Columns and labels:
Format in all cases: in vivo
[1] = system: galium (catchweed bedstraw, Galium aparine); test: Test C preemergence; settings: scale 0 to 100, 0 is no effect, 100 is complete control
Source text: (§1) Seeds of plant species selected from blackgrass (Alopecurus myosuroides), Italian ryegrass (Lolium multiflorum), winter wheat (Triticum aestivum), galium (catchweed bedstraw, Galium aparine), corn (Zea mays), large (Lg) crabgrass (Digitaria sanguinalis), giant foxtail (Setaria faberii), johnsongrass (Sorghum halepense), lambsquarters (Chenopodium album), morningglory (Ipomoea coccinea), yellow nutsedge (Cyperus esculentus), pigweed (Amaranthus retroflexus), ragweed (common ragweed, Ambrosia elatior), soybean (Glycine max), barnyardgrass (Echinochloa crus-galli), oilseed rape (Brassica napus), waterhemp (common waterhemp, Amaranthus rudis), and velvetleaf (Abutilon theophrasti) were planted into a blend of loam soil and sand and treated preemergence with test chemicals formulated in a non-phytotoxic solvent mixture which included a surfactant. At the same time, plants selected from these crop and weed species and also chickweed (common chickweed, Stellaria media), kochia (Kochia scoparia), and wild oat (Avena fatua), were planted in pots containing Sunshine Redi-Earth® planting medium comprising spaghnum peat moss, vermiculite, starter nutrients and dolomitic limestone and treated with postemergence applications of test chemicals formulated in the same manner. Plants ranged in height from 2 to 18 cm (1- to 4-leaf stage) for postemergence treatments. Treated plants and controls were maintained in a greenhouse for 13 to 15 days, after which time all species were compared to controls and visually evaluated. Plant response ratings, summarized in Table C, are based on a scale of 0 to 100 where 0 is no effect and 100 is complete control. A dash (-) response means no test result.

[2] = system: yellow nutsedge (Cyperus esculentus); test: Test C preemergence; settings: scale 0 to 100, 0 is no effect, 100 is complete control
Source text: as §1

[3] = system: oilseed rape (Brassica napus); test: Test C preemergence; settings: scale 0 to 100, 0 is no effect, 100 is complete control
Source text: as §1

[4] = system: velvetleaf (Abutilon theophrasti); test: Test C preemergence; settings: scale 0 to 100, 0 is no effect, 100 is complete control
Source text: as §1

[5] = system: barnyardgrass (Echinochloa crus-galli); test: Test C preemergence; settings: scale 0 to 100, 0 is no effect, 100 is complete control
Source text: as §1

[6] = system: winter wheat (Triticum aestivum); test: Test C preemergence; settings: scale 0 to 100, 0 is no effect, 100 is complete control
Source text: as §1

[7] = system: morningglory (Ipomoea coccinea); test: Test C preemergence; settings: scale 0 to 100, 0 is no effect, 100 is complete control
Source text: as §1

[8] = system: waterhemp (common waterhemp, Amaranthus rudis); test: Test C preemergence; settings: scale 0 to 100, 0 is no effect, 100 is complete control
Source text: as §1

[9] = system: lambsquarters (Chenopodium album); test: Test C preemergence; settings: scale 0 to 100, 0 is no effect, 100 is complete control
Source text: as §1

corn (Zea mays) = test: Test C preemergence; settings: scale 0 to 100, 0 is no effect, 100 is complete control
Source text: as §1

[10] = system: blackgrass (Alopecurus myosuroides); test: Test C preemergence; settings: scale 0 to 100, 0 is no effect, 100 is complete control
Source text: as §1

[11] = system: Italian ryegrass (Lolium multiflorum); test: Test C preemergence; settings: scale 0 to 100, 0 is no effect, 100 is complete control
Source text: as §1

[12] = system: pigweed (Amaranthus retroflexus); test: Test C preemergence; settings: scale 0 to 100, 0 is no effect, 100 is complete control
Source text: as §1

[13] = system: large (Lg) crabgrass (Digitaria sanguinalis); test: Test C preemergence; settings: scale 0 to 100, 0 is no effect, 100 is complete control
Source text: as §1

[14] = system: ragweed (common ragweed, Ambrosia elatior); test: Test C preemergence; settings: scale 0 to 100, 0 is no effect, 100 is complete control
Source text: as §1

[15] = system: giant foxtail (Setaria faberii); test: Test C preemergence; settings: scale 0 to 100, 0 is no effect, 100 is complete control
Source text: as §1

[16] = system: barnyardgrass (Echinochloa crus-galli); test: Test B flooded paddy test; parameters: key: 0 = no effect, 100 = complete control; settings: Flood, 250 g ai/ha applied to paddy water at 2-leaf stage; visually evaluated after 13 to 15 days; scale 0 (no effect) to 100 (complete control)
Procedure: (§2) Plant species in the flooded paddy test selected from rice (Oryza sativa), sedge, umbrella (small-flower umbrella sedge, Cyperus difformis), ducksalad (Heteranthera limosa), and barnyardgrass (Echinochloa crus-galli) were grown to the 2-leaf stage for testing. At time of treatment, test pots were flooded to 3 cm above the soil surface, treated by application of test compounds directly to the paddy water, and then maintained at that water depth for the duration of the test. Treated plants and controls were maintained in a greenhouse for 13 to 15 days, after which time all species were compared to controls and visually evaluated. Plant response ratings, summarized in Table B, are based on a scale of 0 to 100 where 0 is no effect and 100 is complete control. A dash (-) response means no test result.

[17] = system: ducksalad (Heteranthera limosa); test: Test B flooded paddy test; parameters: key: 0 = no effect, 100 = complete control; settings: Flood, 250 g ai/ha applied to paddy water at 2-leaf stage; visually evaluated after 13 to 15 days; scale 0 (no effect) to 100 (complete control)
Procedure: as §2

rice (Oryza sativa) = test: Test B flooded paddy test; parameters: key: 0 = no effect, 100 = complete control; settings: Flood, 250 g ai/ha applied to paddy water at 2-leaf stage; visually evaluated after 13 to 15 days; scale 0 (no effect) to 100 (complete control)
Procedure: as §2

[18] = system: sedge, umbrella (small-flower umbrella sedge, Cyperus difformis); test: Test B flooded paddy test; parameters: key: 0 = no effect, 100 = complete control; settings: Flood, 250 g ai/ha applied to paddy water at 2-leaf stage; visually evaluated after 13 to 15 days; scale 0 (no effect) to 100 (complete control)
Procedure: as §2

O=c1cccc(Oc2ncc(Cl)cn2)n1-c1ncc(Cl)cn1 [Compound 6]
Plant response rating, Galium ([1]; 16 g ai/ha): 80
Plant response rating, Galium ([1]; 31 g ai/ha): 90
Plant response rating, Galium ([1]; 62 g ai/ha): 90
Plant response rating, Galium ([1]; 125 g ai/ha): 90
Plant response rating, Nutsedge, Yellow ([2]; 16 g ai/ha): 0
Plant response rating, Nutsedge, Yellow ([2]; 31 g ai/ha): 0
Plant response rating, Nutsedge, Yellow ([2]; 62 g ai/ha): 0
Plant response rating, Nutsedge, Yellow ([2]; 125 g ai/ha): 5
Plant response rating, Oilseed Rape ([3]; 16 g ai/ha): 30
Plant response rating, Oilseed Rape ([3]; 31 g ai/ha): 90
Plant response rating, Oilseed Rape ([3]; 62 g ai/ha): 98
Plant response rating, Oilseed Rape ([3]; 125 g ai/ha): 98
Plant response rating, Velvetleaf ([4]; 16 g ai/ha): 10
Plant response rating, Velvetleaf ([4]; 31 g ai/ha): 25
Plant response rating, Velvetleaf ([4]; 62 g ai/ha): 40
Plant response rating, Velvetleaf ([4]; 125 g ai/ha): 80
Plant response rating, Barnyardgrass ([5]; 16 g ai/ha): 0
Plant response rating, Barnyardgrass ([5]; 31 g ai/ha): 5
Plant response rating, Barnyardgrass ([5]; 62 g ai/ha): 10
Plant response rating, Barnyardgrass ([5]; 125 g ai/ha): 40
Plant response rating, Wheat ([6]; 16 g ai/ha): 0
Plant response rating, Wheat ([6]; 31 g ai/ha): 0
Plant response rating, Wheat ([6]; 62 g ai/ha): 5
Plant response rating, Wheat ([6]; 125 g ai/ha): 0
Plant response rating, Morningglory ([7]; 16 g ai/ha): 5
Plant response rating, Morningglory ([7]; 31 g ai/ha): 5
Plant response rating, Morningglory ([7]; 62 g ai/ha): 20
Plant response rating, Morningglory ([7]; 125 g ai/ha): 55
Plant response rating, Waterhemp ([8]; 16 g ai/ha): 75
Plant response rating, Waterhemp ([8]; 31 g ai/ha): 90
Plant response rating, Waterhemp ([8]; 62 g ai/ha): 100
Plant response rating, Waterhemp ([8]; 125 g ai/ha): 100
Plant response rating, Lambsquarters ([9]; 16 g ai/ha): 40
Plant response rating, Lambsquarters ([9]; 31 g ai/ha): 30
Plant response rating, Lambsquarters ([9]; 62 g ai/ha): 65
Plant response rating, Lambsquarters ([9]; 125 g ai/ha): 85
Plant response rating, Corn (corn (Zea mays); 16 g ai/ha): 0
Plant response rating, Corn (corn (Zea mays); 31 g ai/ha): 5
Plant response rating, Corn (corn (Zea mays); 62 g ai/ha): 0
Plant response rating, Corn (corn (Zea mays); 125 g ai/ha): 5
Plant response rating, Blackgrass ([10]; 16 g ai/ha): 0
Plant response rating, Blackgrass ([10]; 31 g ai/ha): 0
Plant response rating, Blackgrass ([10]; 62 g ai/ha): 5
Plant response rating, Blackgrass ([10]; 125 g ai/ha): 5
Plant response rating, Ryegrass, Italian ([11]; 16 g ai/ha): 0
Plant response rating, Ryegrass, Italian ([11]; 31 g ai/ha): 5
Plant response rating, Ryegrass, Italian ([11]; 62 g ai/ha): 5
Plant response rating, Ryegrass, Italian ([11]; 125 g ai/ha): 5
Plant response rating, Pigweed ([12]; 16 g ai/ha): 55
Plant response rating, Pigweed ([12]; 31 g ai/ha): 75
Plant response rating, Pigweed ([12]; 62 g ai/ha): 90
Plant response rating, Pigweed ([12]; 125 g ai/ha): 100
Plant response rating, Crabgrass, Large ([13]; 16 g ai/ha): 5
Plant response rating, Crabgrass, Large ([13]; 31 g ai/ha): 50
Plant response rating, Crabgrass, Large ([13]; 62 g ai/ha): 90
Plant response rating, Crabgrass, Large ([13]; 125 g ai/ha): 100
Plant response rating, Ragweed ([14]; 16 g ai/ha): 25
Plant response rating, Ragweed ([14]; 31 g ai/ha): 25
Plant response rating, Ragweed ([14]; 62 g ai/ha): 70
Plant response rating, Ragweed ([14]; 125 g ai/ha): 85
Plant response rating, Foxtail, Giant ([15]; 16 g ai/ha): 0
Plant response rating, Foxtail, Giant ([15]; 31 g ai/ha): 5
Plant response rating, Foxtail, Giant ([15]; 62 g ai/ha): 70
Plant response rating, Foxtail, Giant ([15]; 125 g ai/ha): 100
Plant response rating, Barnyardgrass [16]: 0
Plant response rating, Ducksalad [17]: 80
Plant response rating, Rice (rice (Oryza sativa)): 0
Plant response rating, Sedge, Umbrella [18]: 85

Source: patent US9963442B2, “Pyridones as herbicides” (E I DU PONT DE NEMOURS AND COMPANY, priority 2014, dated 2018)
